SMILES strings stand for the structures. Where only a bound is given, the exact number is not on record here.

Data on 21 compounds can be found in patent US20230365592A1 (Agios Pharmaceuticals, Inc., priority 2022, published 2023).

The experiment addresses T1, human PAH with the R408W mutation (Homo sapiens, UniProt P00439, R408W).
T1 construct: expressed in transfected cells
T1 sequence (P00439 1-452 R408W): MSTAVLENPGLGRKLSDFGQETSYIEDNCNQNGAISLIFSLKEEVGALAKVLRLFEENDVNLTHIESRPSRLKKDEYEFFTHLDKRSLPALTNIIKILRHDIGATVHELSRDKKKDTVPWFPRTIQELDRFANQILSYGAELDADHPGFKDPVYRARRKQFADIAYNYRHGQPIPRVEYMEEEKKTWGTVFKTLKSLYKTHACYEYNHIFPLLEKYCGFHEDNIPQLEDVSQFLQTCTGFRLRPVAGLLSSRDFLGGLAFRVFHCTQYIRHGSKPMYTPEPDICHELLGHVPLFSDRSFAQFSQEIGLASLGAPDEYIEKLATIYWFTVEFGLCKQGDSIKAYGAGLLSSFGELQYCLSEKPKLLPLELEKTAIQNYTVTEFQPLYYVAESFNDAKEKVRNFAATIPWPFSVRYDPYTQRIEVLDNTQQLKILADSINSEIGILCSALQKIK
Put plainly: Cell Based Phenylalanine Flux Assay.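 Also: after compound treatment, cells received sepiapterin plus isotope-labelled Phenylalanine for 4 hours, then labelled Tyrosine in the medium was quantified, 10-point 2-fold dilution series run in duplicate.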 Conditions: A375 cells expressing human PAH R408W; 24 hrs compound incubation; 13C-Tyrosine by LC-MS; average where tested multiple times; read-out: AC50.

For the compound `Fc1cccc(F)c1-c1nnc(N2CCc3[nH]cnc3[C@H]2c2cc3cccc(C(F)(F)F)n3n2)o1` [Example 2133, (S)-2-(2,6-difluorophenyl)-5-(4-(7-(trifluoromethyl)pyrazolo[1,5-a]pyridin-2-yl)-1,4,6,7-tetrahydro-5H-imidazo[4,5-c]pyridin-5-yl)-1,3,4-oxadiazole], the AC50 (usually the midpoint of the concentration-response curve, whichever way the signal moves) is under 500 nM.
The same measure for `Fc1cccc(N2CCc3[nH]cnc3[C@@H]2c2cc3ccccn3n2)n1` [Example 2134, (R)-5-(6-fluoropyridin-2-yl)-4-(pyrazolo[1,5-a]pyridin-2-yl)-4,5,6,7-tetrahydro-1H-imidazo[4,5-c]pyridine]: 1000 to 5000 nM.
Under `Fc1cccc(N2CCc3[nH]cnc3[C@H]2c2cc3ccccn3n2)n1` [Example 2135, (S)-5-(6-fluoropyridin-2-yl)-4-(pyrazolo[1,5-a]pyridin-2-yl)-4,5,6,7-tetrahydro-1H-imidazo[4,5-c]pyridine] stands under 500 nM; under `FC(F)(F)c1ccc(N2CCc3[nH]cnc3[C@@H]2c2cc3cccc(Cl)n3n2)nc1` [Example 2137, (R)-4-(7-chloropyrazolo[1,5-a]pyridin-2-yl)-5-(5-(trifluoromethyl)pyridin-2-yl)-4,5,6,7-tetrahydro-1H-imidazo[4,5-c]pyridine], over 5000 nM.
The same measure for `FC(F)c1cccc2cc([C@@H]3c4nc[nH]c4CCN3c3ccc(C(F)(F)F)cn3)nn12` [Example 2138, (S)-4-(7-(difluoromethyl)pyrazolo[1,5-a]pyridin-2-yl)-5-(5-(trifluoromethyl)pyridin-2-yl)-4,5,6,7-tetrahydro-1H-imidazo[4,5-c]pyridine]: under 500 nM.
Take `O=C(c1cnc(C2CC2)o1)N1CCc2[nH]cnc2[C@H]1c1cc2c(C(F)(F)F)cccn2n1` [Example 2140, (S)-(2-cyclopropyloxazol-5-yl)(4-(4-(trifluoromethyl)pyrazolo[1,5-a]pyridin-2-yl)-1,4,6,7-tetrahydro-5H-imidazo[4,5-c]pyridin-5-yl)methanone]: the AC50 is under 500 nM.
The same measure for `CC(C)(C)c1ncc(C(=O)N2CCc3[nH]cnc3[C@H]2c2cc3c(C(F)(F)F)cccn3n2)o1` [Example 2142, (S)-(2-(tert-butyl)oxazol-5-yl)(4-(4-(trifluoromethyl)pyrazolo[1,5-a]pyridin-2-yl)-1,4,6,7-tetrahydro-5H-imidazo[4,5-c]pyridin-5-yl)methanone]: under 500 nM; for `CC(C)(F)c1ncc(C(=O)N2CCc3[nH]cnc3[C@H]2c2cc3c(C(F)(F)F)cccn3n2)o1` [Example 2144, (S)-(2-(2-fluoropropan-2-yl)oxazol-5-yl)(4-(4-(trifluoromethyl)pyrazolo[1,5-a]pyridin-2-yl)-1,4,6,7-tetrahydro-5H-imidazo[4,5-c]pyridin-5-yl)methanone]: under 500 nM; for `CC(C)c1cccn2nc([C@H]3c4nc[nH]c4CCN3c3ccc(C(F)(F)F)cn3)cc12` [Example 2149, (R)-4-(4-isopropylpyrazolo[1,5-a]pyridin-2-yl)-5-(5-(trifluoromethyl)pyridin-2-yl)-4,5,6,7-tetrahydro-1H-imidazo[4,5-c]pyridine]: over 5000 nM.
On to `COc1cccn2nc([C@H]3c4nc[nH]c4CCN3c3nnc(C(F)F)o3)cc12` [Example 2150, (R)-2-(difluoromethyl)-5-(4-(4-methoxypyrazolo[1,5-a]pyridin-2-yl)-1,4,6,7-tetrahydro-5H-imidazo[4,5-c]pyridin-5-yl)-1,3,4-oxadiazole], for which the AC50 was over 5000 nM.
Under `COc1cccn2nc([C@@H]3c4nc[nH]c4CCN3c3nnc(C(F)F)o3)cc12` [Example 2151, (S)-2-(difluoromethyl)-5-(4-(4-methoxypyrazolo[1,5-a]pyridin-2-yl)-1,4,6,7-tetrahydro-5H-imidazo[4,5-c]pyridin-5-yl)-1,3,4-oxadiazole] stands under 500 nM; under `FC(F)Oc1cccn2nc([C@@H]3c4nc[nH]c4CCN3c3nnc(C(F)F)o3)cc12` [Example 2153, (S)-2-(4-(4-(difluoromethoxy)pyrazolo[1,5-a]pyridin-2-yl)-1,4,6,7-tetrahydro-5H-imidazo[4,5-c]pyridin-5-yl)-5-(difluoromethyl)-1,3,4-oxadiazole], under 500 nM.
For the compound `Cc1cccn2nc([C@@H]3c4nc[nH]c4CCN3c3nnc(-c4cnccn4)o3)cc12` [Example 2157, (S)-2-(4-(4-methylpyrazolo[1,5-a]pyridin-2-yl)-1,4,6,7-tetrahydro-5H-imidazo[4,5-c]pyridin-5-yl)-5-(pyrazin-2-yl)-1,3,4-oxadiazole], the AC50 fell in the range of 500 to 1000 nM.
Turning to `FC(F)(F)c1cccn2nc([C@@H]3c4nc[nH]c4CCN3c3nnc(-c4ccncn4)o3)cc12` [Example 2162, (S)-2-(pyrimidin-4-yl)-5-(4-(4-(trifluoromethyl)pyrazolo[1,5-a]pyridin-2-yl)-1,4,6,7-tetrahydro-5H-imidazo[4,5-c]pyridin-5-yl)-1,3,4-oxadiazole], the AC50 is 500 to 1000 nM.
For the compound `FC(F)(F)c1cccn2nc([C@H]3c4nc[nH]c4CCN3c3nnc(-c4ccncn4)o3)cc12` [Example 2163, (R)-2-(pyrimidin-4-yl)-5-(4-(4-(trifluoromethyl)pyrazolo[1,5-a]pyridin-2-yl)-1,4,6,7-tetrahydro-5H-imidazo[4,5-c]pyridin-5-yl)-1,3,4-oxadiazole], the AC50 is over 5000 nM.
On to `COc1cccn2nc([C@@H]3c4nc[nH]c4CCN3c3nnc(C(F)(F)F)o3)cc12` [Example 2164, (S)-2-(4-(4-methoxypyrazolo[1,5-a]pyridin-2-yl)-1,4,6,7-tetrahydro-5H-imidazo[4,5-c]pyridin-5-yl)-5-(trifluoromethyl)-1,3,4-oxadiazole], for which the AC50 was under 500 nM.
Regarding `COc1cccn2nc([C@H]3c4nc[nH]c4CCN3c3nnc(C(F)(F)F)o3)cc12` [Example 2165, (R)-2-(4-(4-methoxypyrazolo[1,5-a]pyridin-2-yl)-1,4,6,7-tetrahydro-5H-imidazo[4,5-c]pyridin-5-yl)-5-(trifluoromethyl)-1,3,4-oxadiazole], the AC50 is over 5000 nM.
The same measure for `FC(F)c1nnc(N2CCc3[nH]cnc3[C@@H]2c2cc3c(C4CC4)cccn3n2)o1` [Example 2166, (R)-2-(4-(4-cyclopropylpyrazolo[1,5-a]pyridin-2-yl)-1,4,6,7-tetrahydro-5H-imidazo[4,5-c]pyridin-5-yl)-5-(difluoromethyl)-1,3,4-oxadiazole]: over 5000 nM; for `CC(C)c1cccn2nc([C@H]3c4nc[nH]c4CCN3c3nnc(C4CC4)o3)cc12` [Example 2168, (R)-2-cyclopropyl-5-(4-(4-isopropylpyrazolo[1,5-a]pyridin-2-yl)-1,4,6,7-tetrahydro-5H-imidazo[4,5-c]pyridin-5-yl)-1,3,4-oxadiazole]: 1000 to 5000 nM; for `CC(C)c1cccn2nc([C@@H]3c4nc[nH]c4CCN3c3nnc(C4CC4)o3)cc12` [Example 2169, (S)-2-cyclopropyl-5-(4-(4-isopropylpyrazolo[1,5-a]pyridin-2-yl)-1,4,6,7-tetrahydro-5H-imidazo[4,5-c]pyridin-5-yl)-1,3,4-oxadiazole]: under 500 nM.
The same measure for `FC(F)(F)c1ccc(N2CCc3[nH]cnc3[C@H]2c2cc3c(C4CC4)cccn3n2)nc1` [Example 2170, (S)-4-(4-cyclopropylpyrazolo[1,5-a]pyridin-2-yl)-5-(5-(trifluoromethyl)pyridin-2-yl)-4,5,6,7-tetrahydro-1H-imidazo[4,5-c]pyridine]: under 500 nM.
